Results: PubChem BioAssay AID1963854 (Molecular Pharmacology Branch, DTP, NCI, 2024)
Values joined by “and” are separate entries in the source; they are usually repeats but may differ in a detail not shown here. Identical values can stand only once.

System: 186277-243-T-J2-PDC complex spheroid viability
Assay: Anticancer human tumor 186277-243-T-J2-PDC patient-derived colon adenocarcinoma cell line growth inhibition [POLQ]
Conditions: for viability, T/C: stronger effect = lower value
Description: Multicellular complex tumor spheroid response to Polymerase (POL) inhibitors (novobiocin, ART-558, RP6685) in combination with a variety of drugs and investigational agents in selected tumor cell lines
The POL inhibitors (novobiocin, ART-558, and RP6685) were evaluated both individually and in combination with standard of care and investigational anticancer small molecules within a complex spheroid model of solid tumors. . Complex spheroids include a stromal component modeled by human endothelial cells (HUVEC) and fibroblasts modeled by human mesenchymal stem cells (MSCs). The concentration ranges selected for each drug and investigational agent were based upon clinically achievable concentrations if the clinical Cmax of the agent was known.
Compounds. The drugs and investigational agents: novobiocin (NSC847541), ART-558 (NSC835418), RP-6685 (NSC848927), peposertib (NSC802822), ceralasertib (NSC780249), elimusertib (NSC800525), camonsertib (NSC841442), AZD-1390 (NSC803789), olaparib (NSC753686), talazoparib (NSC767125), rucaparib (NSC756644), sotorasib (NSC818433), MRTX-1133 (NSC836407), SN-38 (NSC673596), topotecan (NSC609699), epotoside (NSC141540), doxorubicin (NSC123127), gemcitabine (NSC613327), 5-fluorouracil (NSC19893), paclitaxel (NSC125973), vemurafenib (NSC761431), MSA-2 (NSC828583), SN-011 (NSC837082), adavosertib (NSC754352), prexasertib (NSC758257), carboplatin (NSC241240) and oxaliplatin (NSC266046), were obtained from the National Cancer Institute (NCI) Developmental Therapeutics Program Chemical Repository (21). The FDA-approved anticancer drug set is available from the Developmental Therapeutics Program at https://dtp.cancer.gov/organization/dscb/obtaining/. […] The stock solutions were prepared in dimethyl sulfoxide (DMSO, Sigma-Aldrich, St. Louis, MO, cat. D2650), except for the platinum compounds which were prepared in saline (Quality Biological, Gaithersburg, MD, cat. 114-055-101), at 800-fold the tested concentration and stored at -70 degrees C prior to their use. All drugs and investigational agents were tested over a range starting from a high concentration at or near the clinical Cmax and decreasing in half-log increments. If the clinical Cmax for an agent had not been determined, the highest concentration tested was 10 microM, except for SN-38, which was tested at a high concentration of 1 microM.
Cell Culture. All cells were maintained in an incubator at 37 degrees C and 5% CO2 with 95% humidity. The PDC lines were cultured according to standard operating procedures established by the NCI PDMR (https://pdmr.cancer.gov). Table 3 of the manuscript, lists the cell lines along with the number of the three cell types plated to form the mct-spheroids and media for tumor cell growth. After thawing, all PDC lines, except 997537-175-T-J1-PDC and 415267-285-R-J2-PDC, were cultured in Matrigel-coated flasks prepared with a working solution of 1X Ham's F-12 nutrient mix, without supplementation (Thermo Fisher Scientific, cat. 11765054), 100 U/mL penicillin-streptomycin (Thermo Fisher Scientific, cat. 15140122), and 2.5% Matrigel (Corning Inc., Corning, NY, cat. 354248) for the first three passages. The two PDC lines 997537-175-T-J1-PDC and 415267-285-R-J2-PDC were cultured on uncoated flasks. The 857933-349-R-J2-PDC line was cultured in 6C/Colon 1B media containing advanced DMEM/F-12 (Thermo Fisher Scientific, cat. 12634028), 10 mM HEPES (Thermo Fisher Scientific, cat. 15630080), 1X GlutaMAX supplement (Thermo Fisher Scientific, cat. 35050061), 0.1 mg/mL primocin (InvivoGen, San Diego, CA, cat. ant-pm-2), 10% defined fetal bovine serum, heat inactivated (HyClone Laboratories Inc., Logan, UT, cat. SH30070.03HI), 50% L-WRN conditioned media (ATCC, cat. CRL-3276), 1.25 mM N-Acetyl-L-cysteine (Sigma-Aldrich, cat. A9165), 10 mM nicotinamide (Sigma-Aldrich, cat. N0636), 1X B-27 supplement (Thermo Fisher Scientific, cat. 17504044), 1X N-2 supplement (Thermo Fisher Scientific, cat. […]

[1] = curve of first compound, second compound 0.0316 µM
[2] = curve of first compound, second compound 0.1 µM
[3] = curve of first compound, second compound 0.316 µM
[4] = curve of first compound, second compound 1 µM
[5] = curve of first compound, second compound 3.16 µM
[6] = curve of first compound, second compound 10 µM
[7] = second compound 0.0316 µM, first compound 0.0316 µM
[8] = second compound 0.0316 µM, first compound 0.1 µM
[9] = second compound 0.0316 µM, first compound 0.316 µM
[10] = second compound 0.0316 µM, first compound 1 µM
[11] = second compound 0.1 µM, first compound 0.0316 µM
[12] = second compound 0.1 µM, first compound 0.1 µM
[13] = second compound 0.1 µM, first compound 0.316 µM
[14] = second compound 0.1 µM, first compound 1 µM
[15] = second compound 0.316 µM, first compound 0.0316 µM
[16] = second compound 0.316 µM, first compound 0.1 µM
[17] = second compound 0.316 µM, first compound 0.316 µM
[18] = second compound 0.316 µM, first compound 1 µM
[19] = second compound 1 µM, first compound 0.0316 µM
[20] = second compound 1 µM, first compound 0.1 µM
[21] = second compound 1 µM, first compound 0.316 µM
[22] = second compound 1 µM, first compound 1 µM
[23] = second compound 3.16 µM, first compound 0.0316 µM
[24] = second compound 3.16 µM, first compound 0.1 µM
[25] = second compound 3.16 µM, first compound 0.316 µM
[26] = second compound 3.16 µM, first compound 1 µM
[27] = second compound 10 µM, first compound 0.0316 µM
[28] = second compound 10 µM, first compound 0.1 µM
[29] = second compound 10 µM, first compound 0.316 µM
[30] = second compound 10 µM, first compound 1 µM
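Also: spheroids exposed to compounds for seven days.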
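For viability, T/C in this document: 100% = DMSO vehicle control viability.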

CNCc1ccc(-c2[nH]c3cc(F)cc4c3c2CCNC4=O)cc1 + Nc1ccc(C#CCN(C(=O)Cc2ncc(C(F)(F)F)cc2C(F)(F)F)c2ccc(F)cc2)nn1
IC50 [1]: > 10000 nM | IC50 [2]: > 10000 nM | IC50 [3]: > 10000 nM | IC50 [4]: > 10000 nM | IC50 [5]: > 10000 nM | IC50 [6]: > 10000 nM | viability, T/C [7]: 121% | viability, T/C [8]: 104% | viability, T/C [9]: 129% | viability, T/C [10]: 85.5% | viability, T/C (second compound 0.0316 µM, first compound 3.16 µM): 112% | viability, T/C (second compound 0.0316 µM, first compound 10 µM): 126% | viability, T/C [11]: 101% | viability, T/C [12]: 96.7% | viability, T/C [13]: 108% | viability, T/C [14]: 95.5% | viability, T/C (second compound 0.1 µM, first compound 3.16 µM): 125% | viability, T/C (second compound 0.1 µM, first compound 10 µM): 121% | viability, T/C [15]: 100% | viability, T/C [16]: 109% | viability, T/C [17]: 103% | viability, T/C [18]: 102% | viability, T/C (second compound 0.316 µM, first compound 3.16 µM): 105% | viability, T/C (second compound 0.316 µM, first compound 10 µM): 116% | viability, T/C [19]: 92.4% | viability, T/C [20]: 118% | viability, T/C [21]: 95% | viability, T/C [22]: 111% | viability, T/C (second compound 1 µM, first compound 3.16 µM): 98.7% | viability, T/C (second compound 1 µM, first compound 10 µM): 132% | viability, T/C [23]: 96.9% | viability, T/C [24]: 118% | viability, T/C [25]: 100% | viability, T/C [26]: 99.6% | viability, T/C (second compound 3.16 µM, first compound 3.16 µM): 111% | viability, T/C (second compound 3.16 µM, first compound 10 µM): 110% | viability, T/C [27]: 108% | viability, T/C [28]: 106% | viability, T/C [29]: 106% | viability, T/C [30]: 103% | viability, T/C (second compound 10 µM, first compound 3.16 µM): 88.2% | viability, T/C (second compound 10 µM, first compound 10 µM): 116%

C=CCn1c(=O)c2cnc(Nc3ccc(N4CCN(C)CC4)cc3)nc2n1-c1cccc(C(C)(C)O)n1 + Nc1ccc(C#CCN(C(=O)Cc2ncc(C(F)(F)F)cc2C(F)(F)F)c2ccc(F)cc2)nn1
IC50 [1]: 212 nM | IC50 [2]: 224 nM | IC50 [3]: 229 nM | IC50 [4]: 214 nM | IC50 [5]: 211 nM | IC50 [6]: 204 nM | viability, T/C (second compound 0.0316 µM, first compound 0.00316 µM): 95% | viability, T/C (second compound 0.0316 µM, first compound 0.01 µM): 91.2% | viability, T/C [7]: 86.9% | viability, T/C [8]: 87.5% | viability, T/C [9]: 30.1% | viability, T/C [10]: 15.7% | viability, T/C (second compound 0.1 µM, first compound 0.00316 µM): 94.8% | viability, T/C (second compound 0.1 µM, first compound 0.01 µM): 107% | viability, T/C [11]: 109% | viability, T/C [12]: 99.5% | viability, T/C [13]: 28.8% | viability, T/C [14]: 15.1% | viability, T/C (second compound 0.316 µM, first compound 0.00316 µM): 88.5% | viability, T/C (second compound 0.316 µM, first compound 0.01 µM): 105% | viability, T/C [15]: 93% | viability, T/C [16]: 101% | viability, T/C [17]: 31.8% | viability, T/C [18]: 14.4% | viability, T/C (second compound 1 µM, first compound 0.00316 µM): 89.5% | viability, T/C (second compound 1 µM, first compound 0.01 µM): 101% | viability, T/C [19]: 101% | viability, T/C [20]: 93% | viability, T/C [21]: 28% | viability, T/C [22]: 12% | viability, T/C (second compound 3.16 µM, first compound 0.00316 µM): 109% | viability, T/C (second compound 3.16 µM, first compound 0.01 µM): 97.5% | viability, T/C [23]: 110% | viability, T/C [24]: 98.2% | viability, T/C [25]: 23.7% | viability, T/C [26]: 13.3% | viability, T/C (second compound 10 µM, first compound 0.00316 µM): 90.9% | viability, T/C (second compound 10 µM, first compound 0.01 µM): 98.1% | viability, T/C [27]: 100% | viability, T/C [28]: 96.5% | viability, T/C [29]: 21.3% | viability, T/C [30]: 11.2%

CC1COCCN1c1cc(C2(S(C)(=N)=O)CC2)nc(-c2ccnc3[nH]ccc23)n1 (stereo not drawn)
viability, T/C (compound 0.0316 µM): 97.6% and 101% and 100% | viability, T/C (compound 0.1 µM): 110% and 107% and 101% | viability, T/C (compound 0.316 µM): 102% and 106% and 112% | viability, T/C (compound 1 µM): 38% and 82.3% and 42.9% | viability, T/C (compound 3.16 µM): 7.52% and 14% and 6.48% | viability, T/C (compound 10 µM): 5.94% and 9.28% and 6.22% | IC50 (curve of compound): 805 nM and 1720 nM and 876 nM

CCc1cc2c(N3CCc4c(cc(Cn5ccnc5)cc4-c4cn(C)nc4C(F)(F)F)C3=O)ccnc2c(OC)n1
viability, T/C (compound 0.0316 µM): 103% and 94.2% and 101% | viability, T/C (compound 0.1 µM): 91.9% and 87.2% and 87.1% | viability, T/C (compound 0.316 µM): 88.2% and 90.2% and 95.8% | viability, T/C (compound 1 µM): 84.1% and 101% and 107% | viability, T/C (compound 3.16 µM): 87.8% and 103% and 101% | viability, T/C (compound 10 µM): 83.4% and 104% and 91.2% | IC50 (curve of compound): > 10000 nM
